Columns and labels:
PC9 = experiment: Cold target inhibition assay; assay type: cell-based; settings: peptide 1×10^−5 M pulsed T2-A24 cells
Experimental: Cold target inhibition assay was carried out according to the method of Arai et al. (Blood, 97:2903-2907, 2001). […] After several washings, the resultants were incubated with 2×10^4 effector cells for 1 hour to yield a ratio of peptide-pulsed T2-A24 cells to target cells of 40:1, 20:1, 10:1, and 5:1. 2×10^3 51Cr-labeled PC9 cell lines were added to each well. The cytotoxicity was determined as described in the item 7) regarding CTL assays.

T2-A24 cells = experiment: 51Cr release assay of C27 against peptide-pulsed T2-A24; assay type: cell-based; settings: effector to target ratio of 1
HLA-A2402 = HLA-A2402 (Homo sapiens, UniProt P04439, D101N/D140Y/D185E/E176V/E190D/F33S/G103R/G107R/I119L/I121M/I306V/K335N/L105A/L180Q/L300P/N151K/N90K/Q86E/Q94H/R106L/R138H/R89G/T104I/T345S/V100E/W191G/Y123F); experiment: MHC stabilization assay using T2-A24 cells; assay type: binding; settings: ranking among the seven peptides
[1] = system: CD8 positive T-cells of HLA-A2402 positive healthy donors; experiment: ELISPOT assay of IFN-γ; assay type: cell-based, human; settings: T-cell lines stimulated by peptide-pulsed dendritic cells, incubated with peptide-pulsed T2-A24 cells
Experimental: Subsequently, self-derived dendritic cells were pulsed at room temperature for 2 to 4 hours with each of the Ep-CAM synthesis peptides with a concentration of 10 μM in an AIM-V culture medium (product of Gibco) containing 5×10^−5 M β-mercaptoethanol, followed by irradiation (33Gy).
The dendritic cells (1×10^5 cells) were then cocultivated in a culture tube with CD8 positive T lymphocytes (1×10^6 lymphocytes) in a RPMI1640 culture medium containing 10% human blood serum, 25 ng/mL recombinant human IL-7 (product of R&D systems company), and 5 ng/mL recombinant human IL-12 (product of R&D systems company).
After seven days of cultivation, the cells were stimulated by adding 1×10^5 peptide-pulsed self-derived dendritic cells prepared as above. After a further seven days of cultivation, the cells were stimulated 3 times by the same procedure. After each restimulation, human recombinant IL-2 (product of Takeda Pharmaceutical Company, Ltd.) was added to give a final concentration of 20 units/ml. Actively proliferating cells were divided into 2 or 3 tubes as necessary, and cultured in a fresh culture medium containing 20 units/ml of IL-2. […]
The plate was incubated at 37° C. for 20 hours in a 5% CO2 incubator, and thoroughly washed with PBS containing 0.05% Tween 20. […] The number of diffused large spots was counted under the microscope.

Molecule: CC[C@H](C)[C@H](NC(=O)[C@H](Cc1ccccc1)NC(=O)[C@H](CCCCN)NC(=O)[C@@H]1CCCN1C(=O)[C@H](CC(=O)O)NC(=O)[C@H](CC(C)C)NC(=O)[C@H](CCC(N)=O)NC(=O)[C@H](Cc1ccc(O)cc1)NC(=O)[C@@H](N)CCCNC(=N)N)C(=O)O [Ep173]
- inhibition of C27-mediated cytotoxicity against PC9 by peptide-pulsed T2-A24 cold target cells (PC9): specifically inhibited
- peptide concentration at which C27 demonstrated cytotoxicity against pulsed T2-A24 cells (T2-A24 cells): 100 pM

Molecule: EMGEMHREL (… PROTEIN EPITOPE PEPTIDE …) [Ep304, Ep-CAM peptide, amino acid positions 304-312]
- affinity for the HLA-A2402 (HLA-A2402): lowest affinity

Molecule: YYVDEKAPEF (… PROTEIN EPITOPE PEPTIDE …) [Ep250, Ep-CAM peptide, amino acid positions 250-259]
- production of IFN-γ spots [1]: specifically produced IFN-γ spots

Molecule: RYLRDQQLL (SYTHETIC PROTEIN EPITOPE PEPTIDE …) [ENV584, human immunodeficiency virus-1 (HIV-1) envelope peptide, residues 584-592, control, reference compound]
- production of IFN-γ spots [1]: not observed

From patent US7846651B2, “Epitope/peptide recognized by HLA-A2402-restricted Ep-CAM-specific CTL and use of the same” (Aichi Prefecture, priority 2004, dated 2010)
